From publication PMC11714206, “Massively Parallel Screening of Toll/Interleukin‐1 Receptor (TIR)‐Derived Peptides Reveals Multiple Toll‐Like Receptors (TLRs)‐Targeting Immunomodulatory Peptides” (Advanced Science, 2024)
Values joined by “and” are separate entries in the source; they are usually repeats but may differ in a detail not shown here. Identical values can stand only once.

Molecular target: T1, MyD88^TIR (Homo sapiens, UniProt Q99836)
T1 construct: MyD88 (residues 148–296); 6xHis; made in house; host or cells: E. coli BL21 (DE3)
T1 sequence (Q99836 148-296): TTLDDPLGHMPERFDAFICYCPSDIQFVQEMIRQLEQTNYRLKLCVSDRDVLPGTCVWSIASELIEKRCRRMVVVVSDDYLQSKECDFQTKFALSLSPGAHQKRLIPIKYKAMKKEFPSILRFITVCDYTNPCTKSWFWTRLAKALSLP
Experiment: T‐Surf phage library (P8 and P3) selection against MyD88^TIR, four rounds, NGS read counts
Type: binding
Settings: for P8_MyD88 Rank (after) / P8_MyD88 Rank (before): P8 library
Method: T‐Surf libraries were screened against the immobilized TIR domains of two major human TLR adaptor proteins, MAL^TIR and MyD88^TIR, allowing cross‐species selection of TIR‐binding motifs with 190 946 TIR‐derived peptides in a single binding assay (Scheme 1). Enriched phage pools from the fourth round of selection were analyzed using NGS after barcoding the peptide‐coding regions of the phage pools.
Phage display screening was performed by coating two wells of a 96‐well plate (Maxisorp, Thermo Fisher Scientific) with 100 µL of 5 µg mL^−1 TIR domains overnight; then, the coated wells were blocked with 200 µL of blocking buffer (0.2% BSA in PBS) and set aside for 1 h at 4 °C with gentle shaking. Next, 100 µL of the phage library was added to the wells and incubated for 1 h at room temperature (RT; 20 – 22 °C) with gentle shaking. The plate was washed four times with PBS containing 0.5% Tween‐20; the bound phages were eluted by adding 100 µL of 100 mM HCl to each well. The elute was neutralized with 10 µL of 1.0 M Tris‐HCl (pH 11.0). E. coli TG1 cells were grown to the log phase (A600 = ≈0.6), and 1 mL of the culture was incubated with 100 µL of the eluted phages for 30 min at 37 °C, with shaking at 200 rpm. Next, 1 µL of M13KO7 helper phages was added, followed by incubation for 45 min at 37 °C, with shaking. Subsequently, the cells were transferred to 25 mL of 2× yeast extract tryptone/carbenicillin/kanamycin medium and incubated overnight at 37 °C with shaking at 200 rpm. The amplified phages were precipitated with 20% PEG‐8000/2.5 M NaCl to be used for the next round of selection.
The naïve T‐Surf libraries in P8 and P3 and the enriched phage pools after four rounds were barcoded for NGS as previously described.^[ [59] ^] Briefly, 5 µL of the phage pool was used as a template for 20 cycles of a 50 µL PCR reaction using […] each of forward and reverse barcoded primers and PrimeSTAR Max DNA Polymerase. The PCR products were purified using Expin Gel SV (GeneAll). The NGS samples were quantified using qPCR, following the qPCR Quantification Protocol Guide (KAPA Library Quantification kits for Illumina Sequencing Platform), and qualified using the TapeStation High Sensitivity D1000 ScreenTape (Agilent Technologies). The indexed libraries were further sequenced by Macrogen (Seoul, Republic of Korea) using the NovaSeq platform (Illumina) with 100 bp paired‐end reads. The reads were demultiplexed by barcodes and filtered for an average Phred quality score of at least 30, followed by trimming the flanking consensus sequences using Cutadapt (version 2.3). Peptide sequence populations were analyzed according to the read counts.

[1] = selection against MyD88, rank by count after grouping
[2] = selection against MyD88, rank by count before grouping
[3] = selection against MyD88 TIR, rank by count after grouping
[4] = selection against MyD88 TIR, rank by count before grouping
[5] = 4R selection against MyD88, rank after grouping
[6] = 4R selection against MyD88, rank before grouping
[7] = P8_MyD88: rank by count after grouping
[8] = P8_MyD88: rank by count before grouping
[9] = selection against MyD88, rank after grouping
[10] = selection against MyD88, rank before grouping
[11] = P8_MyD88: rank by NGS read count after grouping
[12] = P8_MyD88: rank by NGS read count before grouping
[13] = P3_MyD88: rank by count after grouping
[14] = P3_MyD88: rank by count before grouping

With DPQELDWFYELLVSPF the “P8_MyD88 Rank (after)” value [1] was 689 and the “P8_MyD88 Rank (before)” value [2] was 2982.

With DPQELDWFYERLVSLF the Population (P8_MyD88 pool: P8 T-Surf phage library, 4th round of selection against MyD88 TIR, share of NGS reads) was 0.02% and 0.0158%.

In the case of DPQELDWIYQRLVSLF, the “P8_MyD88 Rank (after)” value [1] is reported as 714 and the “P8_MyD88 Rank (before)” value [2] is reported as 2987.

With DPQELDWYYERLVSLF the “P8_MyD88 Rank (after)” value [3] was 241 and the “P8_MyD88 Rank (before)” value [4] was 2986.

In the case of DPQELECLYERLFSQM, the “P8_MyD88 Rank (after)” value [5] is reported as 667 and the “P8_MyD88 Rank (before)” value [6] is reported as 2991.

For DPQELEGVYERLVSLF, the “Rank (after)” value [7] was 405 and the “Rank (before)” value [8] was 2994.

For DPQELEWFYERLLSQM, the “P8_MyD88 Rank (after)” value [5] was 620 and the “P8_MyD88 Rank (before)” value [6] was 2993.

With DPQELEWFYERLVSLF the “Rank (after)” value [7] was 163 and the “Rank (before)” value [8] was 745.

With DPQELGWFYERPFSQM the “P8_MyD88 Rank (after)” value [9] was 554 and the “P8_MyD88 Rank (before)” value [10] was 2981.

For DPQELQWIYERLVSLF, the “P8_MyD88 Rank (after)” value [1] was 759 and the “P8_MyD88 Rank (before)” value [2] was 3018.

In the case of DPQELVWRYERLVSLF, the “Rank (after)” value [11] is reported as 962 and the “Rank (before)” value [12] is reported as 3010.

For DPQEQLSFCERLITVF, the “P8_MyD88 Rank (after)” value [1] was 743 and the “P8_MyD88 Rank (before)” value [2] was 2995.

For DPQEQVGICVRLMEAL, the “P8_MyD88 Rank (after)” value [5] was 585 and the “P8_MyD88 Rank (before)” value [6] was 3020.

In the case of DPQERGCQYQRLVGML, the “Rank (after)” value [11] is reported as 902 and the “Rank (before)” value [12] is reported as 3019.

In the case of DPQGHAWTYERHLSVF, the “P8_MyD88 Rank (after)” value [5] is reported as 584 and the “P8_MyD88 Rank (before)” value [6] is reported as 2674.

DPQGLAWFYERLVSLL was tested, and the “Rank (after)” value [7] was 443 and the “Rank (before)” value [8] was 2664.

DPQGLDWFYERLFSQM was tested, and the “Rank (after)” value [7] was 396 and the “Rank (before)” value [8] was 2679.

DPQGLDWYYVRLVSLL was tested, and the “Rank (after)” value [11] was 926 and the “Rank (before)” value [12] was 2666.

For DPQGLGWFYERLVSLF, the “P8_MyD88 Rank (after)” value [3] was 223 and the “P8_MyD88 Rank (before)” value [4] was 2678.

DPQGLVCYYERLVSLL was tested, and the “P8_MyD88 Rank (after)” value [5] was 595 and the “P8_MyD88 Rank (before)” value [6] was 2662.

DPQGLVWLYERLFSQI was tested, and the “Rank (after)” value [11] was 918 and the “Rank (before)” value [12] was 2663.

DPQGRDWFYERLVSLF was tested, and the “Rank (after)” value [7] was 394 and the “Rank (before)” value [8] was 2672.

In the case of DPQGVDLFYERQVSLL, the “P8_MyD88 Rank (after)” value [9] is reported as 567 and the “P8_MyD88 Rank (before)” value [10] is reported as 2675.

For DPQLLDWFYVRLVSLL, the “Rank (after)” value [11] was 1001 and the “Rank (before)” value [12] was 3022.

For DPQLLDWLYERLRRPV, the “Rank (after)” value [11] was 999 and the “Rank (before)” value [12] was 3024.

In the case of DPQLLVCFYERLVSLF, the “P8_MyD88 Rank (after)” value [5] is reported as 640 and the “P8_MyD88 Rank (before)” value [6] is reported as 3023.

In the case of DPQLLVCFYERVVRMF, the “Rank (after)” value [11] is reported as 1010 and the “Rank (before)” value [12] is reported as 3025.

In the case of DPQNLQWFYERLVILI, the “Rank (after)” value [7] is reported as 392 and the “Rank (before)” value [8] is reported as 3031.

In the case of DPQTLQSFYERLVSLI, the “P8_MyD88 Rank (after)” value [9] is reported as 557 and the “P8_MyD88 Rank (before)” value [10] is reported as 3027.

With DPQVLDWYYERLVRLF the “P8_MyD88 Rank (after)” value [5] was 626 and the “P8_MyD88 Rank (before)” value [6] was 2646.

For DPQVLERKYERLVKLV, the “P8_MyD88 Rank (after)” value [1] was 718 and the “P8_MyD88 Rank (before)” value [2] was 2650.

In the case of DPQVLEWFYELLVSLL, the “P8_MyD88 Rank (after)” value [1] is reported as 684 and the “P8_MyD88 Rank (before)” value [2] is reported as 2656.

DPQVLEWFYERLVSMF was tested, and the “P8_MyD88 Rank (after)” value [5] was 658 and the “P8_MyD88 Rank (before)” value [6] was 2657.

DPQVLEWIYARLFSQM was tested, and the “P8_MyD88 Rank (after)” value [5] was 649 and the “P8_MyD88 Rank (before)” value [6] was 2649.

In the case of DPQVLEWLYKRLFSQM, the “P8_MyD88 Rank (after)” value [1] is reported as 677 and the “P8_MyD88 Rank (before)” value [2] is reported as 2648.

With DPQVLVWLYERPFRQI the “P8_MyD88 Rank (after)” value [5] was 629 and the “P8_MyD88 Rank (before)” value [6] was 2644.

With DPQVPEWFYNRLFCQL the “Rank (after)” value [11] was 959 and the “Rank (before)” value [12] was 2651.

DPQVRDWFYERAVSLF was tested, and the “Rank (after)” value [7] was 452 and the “Rank (before)” value [8] was 2660.

In the case of DPQVRVWFYERLVSLF, the “P8_MyD88 Rank (after)” value [1] is reported as 755 and the “P8_MyD88 Rank (before)” value [2] is reported as 2659.

For DPQYRDWFYERLVSLP, the “P8_MyD88 Rank (after)” value [9] was 512 and the “P8_MyD88 Rank (before)” value [10] was 2642.

With DPRDLAWFYEVLLSRF the “P8_MyD88 Rank (after)” value [5] was 657 and the “P8_MyD88 Rank (before)” value [6] was 2618.

In the case of DQHLDLPRGKAIKPELLG, the “Rank (after)” value [13] is reported as 475 and the “Rank (before)” value [14] is reported as 2066.

In the case of DQHRDLPRGKAIKPEILG, the “Rank (after)” value [13] is reported as 168 and the “Rank (before)” value [14] is reported as 2067.

For DQQDLDWFYERLVSVF, the “P8_MyD88 Rank (after)” value [9] was 505 and the “P8_MyD88 Rank (before)” value [10] was 3051.

In the case of DRQDLVWPYERLVSLL, the “P8_MyD88 Rank (after)” value [1] is reported as 698 and the “P8_MyD88 Rank (before)” value [2] is reported as 2599.
